Assay results: patent publication US5567692A, “9-[(substituted glycyl) amido)]-6-demethyl-6-deoxytetracyclines” (priority 1995, dated 1996)
Counter-ions that a name gives are not always drawn. Like-named read-outs stand apart in the source and are kept apart here.

Columns and labels:
[1] = system: E. coli UBMS 88-1 Tet B; assay: microbe, parasite or virus in culture; format: cell-based; settings: Escherichia coli, UBMS881TETB, 18 h
[2] = system: E. coli MC 4100 Tet sens.; assay: MIC, agar dilution; format: cell-based; settings: Escherichia coli, 18 h
[3] = system: E. coli PRP1 Tet A; assay: microbe, parasite or virus in culture; format: cell-based; settings: Escherichia coli, PRP1TETA, 18 h
[4] = system: E. coli MC 4100 TNIOC Tet B; assay: microbe, parasite or virus in culture; format: cell-based; settings: Escherichia coli, 18 h
[5] = system: E. coli J3272 Tet C; assay: microbe, parasite or virus in culture; format: cell-based; settings: Escherichia coli, J3272TETC, 18 h
[6] = system: E. coli UBMS 89-1 Tet M; assay: microbe, parasite or virus in culture; format: cell-based; settings: Escherichia coli, UBMS891TETM, 18 h
[7] = system: E. coli UBMS 89-2 Tet sens.; assay: MIC, agar dilution; format: cell-based; settings: Escherichia coli, 18 h
[8] = system: E. coli J2175; assay: MIC, agar dilution; format: cell-based; settings: Escherichia coli, 18 h, read-out: MIC
[9] = system: E. coli BAJ9003 IMP MUT; assay: microbe, parasite or virus in culture; format: cell-based; settings: Escherichia coli, BAJ9003IMPMUT, 18 h
[10] = system: E. coli UBMS 90-4 Tet M; assay: microbe, parasite or virus in culture; format: cell-based; settings: Escherichia coli, UBMS904TETM, 18 h
[11] = system: E. coli UBMS 90-5; assay: microbe, parasite or virus in culture; format: cell-based; settings: Escherichia coli, UBMS905, 18 h, E. coli UBMS 90-5; read-out: MIC
[12] = system: E. coli #311 (MP); assay: MIC, agar dilution; format: cell-based; settings: Escherichia coli, 18 h
[13] = system: E. coli ATCC 25922; assay: MIC, agar dilution; format: cell-based; settings: Escherichia coli, ATCC25922, 18 h
[14] = system: E. coli J3272 Tet D; assay: microbe, parasite or virus in culture; format: cell-based; settings: Escherichia coli, J3272TETD, 18 h
[15] = system: S. marcescens FPOR 8733; assay: MIC, agar dilution; format: cell-based; settings: Serratia marcescens, FPOR8733, 18 h
[16] = system: X. maltophilia NEMC 87210; assay: MIC, agar dilution; format: cell-based; settings: Stenotrophomonas maltophilia, NEMC87210, 18 h
[17] = system: Ps. aeruginosa ATCC 27853; assay: MIC, agar dilution; format: cell-based; settings: Pseudomonas aeruginosa, ATCC27853, 18 h, Ps. aeruginosa ATCC 27853; read-out: MIC
[18] = system: S. aureus NEMC 8769; assay: MIC, agar dilution; format: cell-based; settings: Staphylococcus aureus, NEMC8769, 18 h, read-out: MIC
[19] = system: S. aureus UBMS 88-4; assay: MIC, agar dilution; format: cell-based; settings: Staphylococcus aureus, UBMS884, 18 h
[20] = system: S. aureus UBMS 88-5 Tet M; assay: microbe, parasite or virus in culture; format: cell-based; settings: Staphylococcus aureus, UBMS885TETM, 18 h
[21] = system: S. aureus UBMS 88-7 Tet K; assay: microbe, parasite or virus in culture; format: cell-based; settings: Staphylococcus aureus, UBMS887TETK, 18 h
[22] = system: S. aureus UBMS 90-1 Tet M; assay: microbe, parasite or virus in culture; format: cell-based; settings: Staphylococcus aureus, UBMS901TETM, 18 h
[23] = system: S. aureus UBMS 90-3; assay: MIC, agar dilution; format: cell-based; settings: Staphylococcus aureus, UBMS903, 18 h
[24] = system: S. aureus UBMS 90-2 Tet M; assay: microbe, parasite or virus in culture; format: cell-based; settings: Staphylococcus aureus, UBMS902TETM, 18 h
[25] = system: S. aureus IVES 2943; assay: MIC, agar dilution; format: cell-based; settings: Staphylococcus aureus, IVES2943, 18 h
[26] = system: S. aureus ROSE (MP); assay: MIC, agar dilution; format: cell-based; settings: Staphylococcus aureus, 18 h
[27] = system: S. aureus SMITH (MP); assay: MIC, agar dilution; format: cell-based; settings: Staphylococcus aureus, 18 h
[28] = system: S. aureus IVES 1983; assay: MIC, agar dilution; format: cell-based; settings: Staphylococcus aureus, IVES1983, 18 h
[29] = system: S. aureus ATCC 29213; assay: MIC, agar dilution; format: cell-based; settings: Staphylococcus aureus, ATCC29213, 18 h, S. aureus ATCC 29213
[30] = system: S. hemolyticus AVHAH 88-3; assay: MIC, agar dilution; format: cell-based; settings: Streptococcus pyogenes, AVHAH883, 18 h
[31] = system: Enterococcus 12201; assay: MIC, agar dilution; format: cell-based; settings: Enterococcus, 12201, 18 h
[32] = system: E. faecalis ATCC 29212; assay: MIC, agar dilution; format: cell-based; settings: Enterococcus faecalis, ATCC29212, 18 h
[33] = system: Staphylococcus aureus strain Smith (tetracycline sensitive); assay: Acute lethal infection in mice, S. aureus Smith; format: in vivo; settings: for ED50: Staphylococcus aureus, 168 h, mice, S. aureus Smith (Sens), 7 day survival, read-out: ED50
[34] = system: E. coli J3272 Tet sens; assay: MIC, agar dilution; format: cell-based; settings: Escherichia coli, J3272TETSENS, 18 h

CCCCCCNCC(=O)Nc1ccc2c(c1O)C(=O)C1=C(O)[C@]3(O)C(=O)C(C(N)=O)=C(O)[C@@H](N(C)C)C3CC1C2 (stereo partly drawn) [G, [4S-(4alpha,12aalpha)]-4-(Dimethylamino)-9-[[(hexylamino)acetyl]amino]-1,4,4a,5,5a,6,11,12a-octahydro-3,10,12,12a-tetrahydroxy-1,11-dioxo-2-naphthacenecarboxamide dihydrochloride]
MIC [1]: 1 µg/mL
MIC [2]: 0.12 µg/mL
MIC [3]: 1 µg/mL
MIC [4]: 1 µg/mL
MIC [5]: 1 µg/mL
MIC [6]: 0.25 µg/mL
MIC [7]: 1 µg/mL
MIC [8]: 1 µg/mL
MIC [9]: 0.12 µg/mL
MIC [10]: 0.5 µg/mL
MIC [11]: 1 µg/mL
MIC [12]: 1 µg/mL
MIC [13]: 1 µg/mL
MIC [14]: 0.5 µg/mL
MIC ([15]; read-out: MIC): 8 µg/mL
MIC [16]: 1 µg/mL
MIC [17]: 32 µg/mL
MIC [18]: 0.12 µg/mL
MIC [19]: 0.25 µg/mL
MIC [20]: 0.5 µg/mL
MIC [21]: 1 µg/mL
MIC [22]: 1 µg/mL
MIC [23]: 0.25 µg/mL
MIC [24]: 0.25 µg/mL
MIC [25]: 2 µg/mL
MIC ([26]; read-out: MIC): 4 µg/mL
MIC [27]: 0.25 µg/mL
MIC [28]: 1 µg/mL
MIC [29]: 0.5 µg/mL
MIC [30]: 2 µg/mL
MIC [31]: 0.25 µg/mL
MIC ([32]; E. faecalis ATCC 29212, read-out: MIC): 0.12 µg/mL
ED50 ([33]; iv, Intraveneous): > 4 mg/kg
ED50 ([33]; po, Oral): > 16 mg/kg
in vivo activity (in words) ([33]; tested intravenously against the minocycline sensitive organism S. aureus Smith): very good in vivo activity

CN(C)[C@@H]1C(O)=C(C(N)=O)C(=O)[C@@]2(O)C(O)=C3C(=O)c4c(ccc(NC(=O)CBr)c4O)CC3CC12 (stereo partly drawn) [R, [4S-(4alpha,12aalpha)]-9-((Bromoacetyl)amino]-4-(dimethylamino)-1,4,4a,5,5a,6,11,12a-octahydro-3,10,12,12a-tetrahydroxy-1,11-dioxo-2-naphthacenecarboxamide monohydrochloride]
MIC [1]: > 32 µg/mL
MIC [34]: 32 µg/mL
MIC [3]: > 32 µg/mL
MIC [4]: > 32 µg/mL
MIC [5]: > 32 µg/mL
MIC [6]: 8 µg/mL
MIC [7]: 32 µg/mL
MIC [8]: 32 µg/mL
MIC [9]: 1 µg/mL
MIC [10]: 32 µg/mL
MIC [11]: 32 µg/mL
MIC [12]: 16 µg/mL
MIC [13]: 16 µg/mL
MIC [14]: > 32 µg/mL
MIC [15]: > 32 µg/mL
MIC [16]: 16 µg/mL
MIC [17]: > 32 µg/mL
MIC [18]: 0.25 µg/mL
MIC ([19]; S. aureus UBMS 88-4, read-out: MIC): 0.5 µg/mL
MIC [20]: 2 µg/mL
MIC [21]: 8 µg/mL
MIC [22]: 1 µg/mL
MIC [23]: 1 µg/mL
MIC [24]: 2 µg/mL
MIC [25]: 16 µg/mL
MIC [26]: 16 µg/mL
MIC [27]: 1 µg/mL
MIC [28]: 16 µg/mL
MIC [29]: 1 µg/mL
MIC [30]: 8 µg/mL
MIC [31]: 4 µg/mL
MIC [32]: 2 µg/mL
